Results taken from paper PMC11585924, “Direct measurements of neurosteroid binding to specific sites on GABAA receptors” (British journal of pharmacology, 2024).
“Also recorded” adds a separate entry of the source.

Experiments:
ELIC-α1GABAAR = ELIC-α1GABAAR (Homo sapiens, UniProt P14867); assay: KK200 photolabelling competition, middle-down MS; assay type: binding; conditions: 3 μM KK200, 30 μM competitor
Description: The synthesis of the NS photolabelling reagent KK200 is detailed in previous reports ([W. W. L. Cheng et al., 2018]; [Jiang et al., 2016]). […] The samples were then irradiated in a quartz cuvette for 5 min, using a photoreactor emitting light at >320 nm ([Germann et al., 2021]). Sample preparation for tryptic digestion and analysis by LC–MS was performed as previously described ([Sugasawa et al., 2019]). Peptides were separated on a home-packed PLRP-S (Agilent, Santa Clara, CA, USA) column (10 cm × 75 μm, 300 Å) using a 135-min gradient from 10% to 90% acetonitrile and introduced to an Orbitrap-Elite mass spectrometer (Thermo Fisher Scientific, Waltham, MA, USA; RRID:SCR_020548) at 800 nl·min^−1 with a nanospray source. MS acquisition was set as an MS1 Orbitrap scan (resolution of 60,000) followed by top 20 MS2 Orbitrap scans (resolution of 15,000) using data-dependent acquisition and exclusion of singly charged precursors. Fragmentation was performed using high-energy dissociation with normalized energy of 35%. Analysis of data sets was performed using Xcalibur (Thermo Fisher Scientific, Waltham, MA, USA; RRID: SCR_014593) to manually search for TM1, TM2, TM3 or TM4 tryptic peptides with or without NS photolabelling modifications. Photolabelling efficiency was estimated by generating extracted chromatograms of unlabelled and labelled peptides, determining the area under the curve, and calculating the (area of labelled peptide/(area of unlabelled + area of labelled peptide). MS2 spectra of photolabelled TMD peptides were analysed by manual assignment of fragment ions with and without photolabelling modification.

α1β3 GABAA receptors = target: T1, α1β3 GABAA receptors (Homo sapiens, UniProt P14867+P28472); assay: Two-electrode voltage clamp of GABA-elicited currents in Xenopus oocytes; assay type: cell-based; conditions: low GABA; wild-type α1β3
T1 construct: expressed in transfected cells; host or cells: Xenopus laevis oocytes, cRNA injected 5:1 (α1:β3)
T1 sequence (P14867 28-456): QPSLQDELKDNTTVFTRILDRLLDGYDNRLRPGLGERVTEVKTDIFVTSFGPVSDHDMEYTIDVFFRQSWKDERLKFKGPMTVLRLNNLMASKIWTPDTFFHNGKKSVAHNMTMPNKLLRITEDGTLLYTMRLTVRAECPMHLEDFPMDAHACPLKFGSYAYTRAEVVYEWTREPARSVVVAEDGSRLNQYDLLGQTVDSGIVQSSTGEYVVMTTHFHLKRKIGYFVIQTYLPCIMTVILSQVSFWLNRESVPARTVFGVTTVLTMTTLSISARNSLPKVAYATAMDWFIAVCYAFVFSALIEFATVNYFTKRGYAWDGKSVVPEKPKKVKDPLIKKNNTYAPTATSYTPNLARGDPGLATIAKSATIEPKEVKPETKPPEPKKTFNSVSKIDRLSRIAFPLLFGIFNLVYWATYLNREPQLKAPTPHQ
T1 sequence (P28472 26-473): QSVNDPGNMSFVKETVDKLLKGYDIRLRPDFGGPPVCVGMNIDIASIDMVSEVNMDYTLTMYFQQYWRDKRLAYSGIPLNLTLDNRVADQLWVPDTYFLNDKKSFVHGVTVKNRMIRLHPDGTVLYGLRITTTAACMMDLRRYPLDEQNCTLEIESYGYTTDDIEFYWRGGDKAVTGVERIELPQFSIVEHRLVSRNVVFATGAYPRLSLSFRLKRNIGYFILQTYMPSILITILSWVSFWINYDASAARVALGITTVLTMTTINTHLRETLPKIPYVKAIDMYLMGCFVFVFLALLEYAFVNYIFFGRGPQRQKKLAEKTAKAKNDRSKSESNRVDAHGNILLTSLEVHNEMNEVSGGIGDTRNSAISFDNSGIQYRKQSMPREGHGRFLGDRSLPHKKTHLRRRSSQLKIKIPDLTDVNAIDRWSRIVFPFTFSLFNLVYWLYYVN
Description: Receptor expression and electrophysiological recordings were conducted as described in detail previously ([Sugasawa et al., 2020]). In brief, α1β3 GABAA receptors were expressed in oocytes from the African clawed frog (X. laevis). The wild-type α1 and β3 subunits were of human origin (Genbank accession numbers NM_000806.5 and NM_000814.5, respectively). The α1 clone containing the Q-to-L mutation to the classic neurosteroid binding site ([Hosie et al., 2006]) was of rat origin. (The glutamine residue in ELIC-α1GABAAR is Q242, whereas the corresponding residue in rat α1 is Q241. For simplicity, the residue is referred to as Q242 for both rat and ELIC-α1GABAAR.) The oocytes were purchased as quarter ovaries from Xenopus1 (Dexter, MI, USA). Following digestion in 2% w/v (mg·ml^−1) collagenase A, the oocytes were injected with a total of 12 ng cRNA per oocyte in a 5:1 ratio (α1:β3) and incubated at 15°C for 2–3 days prior to electrophysiological recordings in ND96 (96-mM NaCl, 2-mM KCl, 1.8-mM CaCl2, 1-mM MgCl2, 5-mM HEPES; pH 7.4) supplemented with 100 U·ml^−1 penicillin and 100 μg·ml^−1 streptomycin.
Electrophysiological recordings were conducted at ≈22°C using standard two-electrode voltage clamp. The voltage and current electrodes (G120F-4, OD = 1.20 mm, ID = 0.69 mm; Warner Instruments, Hamden, CT, USA) were filled with 3-M KCl and had resistances of 0.3–1 MΩ. The oocytes were clamped at −60 mV. The chamber (RC-1Z; Warner Instruments) was perfused with ND96 at 5–8 ml·min^−1. Solutions were gravity-applied. The current responses were amplified with an Axoclamp 900A (Molecular Devices, San Jose, CA, USA) or OC-725C amplifier (Warner Instruments), digitized with a Digidata 1200 series digitizer (Molecular Devices) and stored on PC hard drive using pClamp (Molecular Devices; RRID:SCR_011323). Current amplitudes were determined using Clampfit (Molecular Devices).
A standard experiment consisted of a several-minute long applications of GABA followed immediately by a co-application of GABA + modulator and a wash in GABA. For normalization purposes, each cell was exposed to the combination of saturating (1-mM) GABA + 50-μM propofol, assumed to fully activate all receptors in the cell ([Eaton et al., 2016]).

Chain of ELIC-α1GABAAR (P14867 other isoform, or with tags, fused parts or gaps): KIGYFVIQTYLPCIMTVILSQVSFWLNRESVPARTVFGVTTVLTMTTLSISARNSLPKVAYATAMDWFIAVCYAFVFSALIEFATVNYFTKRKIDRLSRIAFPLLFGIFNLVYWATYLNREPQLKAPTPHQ
Chain of ELIC-α1GABAAR (P0C7B7 1-198, further chain): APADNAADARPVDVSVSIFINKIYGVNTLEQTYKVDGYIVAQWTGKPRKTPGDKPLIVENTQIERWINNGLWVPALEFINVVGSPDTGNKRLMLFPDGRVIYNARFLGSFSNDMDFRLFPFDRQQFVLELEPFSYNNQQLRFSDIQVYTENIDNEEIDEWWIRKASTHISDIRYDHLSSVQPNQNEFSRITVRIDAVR

## CC(=O)[C@H]1CC[C@H]2[C@@H]3CC[C@H]4C[C@@H](O)CC[C@]4(C)[C@H]3CC[C@]12C [Epi-AlloP, epi-allopregnanolone]
ELIC-α1GABAAR
  prevention of KK200 photolabelling of TM3 (Y309): not significantly different than control; also recorded: did not
α1β3 GABAA receptors
  potentiation of GABA-elicited currents: do not
